Data reported in the supplement of paper PMC10307832.

These cell lines were tested with Cc1nc(C(=O)NCC(=O)O)c(O)c2ccc(Oc3ccccc3)cc12 [FG-4592] + CS(=O)(=O)CCNCc1ccc(-c2ccc3ncnc(Nc4ccc(OCc5cccc(F)c5)c(Cl)c4)c3c2)o1 [Lapatinib] (partner 2 µM) (assay: relative viability (nuclei count vs DMSO), 5 days (fraction); higher = more cells survive). Conditions: first compound 0.08 µM.
How it was run: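 One day after seeding in 1536-well plates, lung cancer cell lines were dosed by pin tool. Dosing was either single-drug or a fixed anchor-drug dose plus five library-drug doses (not always all listed) in √10 steps. After 5 days, nuclei were stained in one fix-and-stain step and counted on 4× images, and relative viability is the nuclei count of treated wells over that of vehicle wells, given as the median of duplicate plates.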
NCI-H2085 was tested, and the relative viability was 0.633.
With Calu-6 the relative viability was 1.01.
Cell Line HCC-366 has a relative viability of 0.89.
NCI-H1666 gave a relative viability of 0.617.
NCI-H596 showed a relative viability of 1.04.
For LK-2, the relative viability was 0.695.
NCI-H2087 gave a relative viability of 0.888.
SK-MES-1 was tested, and the relative viability was 0.513.
H3255 showed a relative viability of 0.275.
Work on COR-L23 yielded a relative viability of 0.906.
Work on COR-L 105 yielded a relative viability of 0.348.
IA-LM was tested, and the relative viability was 0.675.
Work on LOU-NH91 yielded a relative viability of 0.72.
NCI-H2170 gave a relative viability of 0.263.
HOP-62 showed a relative viability of 0.939.
HCC-44 was tested, and the relative viability was 0.99.
For A549, the relative viability was 0.917.
LU99A gave a relative viability of 0.964.
For BEN, the relative viability was 0.495.
HARA showed a relative viability of 0.677.
HCC-78 gave a relative viability of 0.696.
Work on NCI-H322M yielded a relative viability of 0.451.
With LCLC-97TM1 the relative viability was 1.13.
For NCI-H2009, the relative viability was 1.02.
Work on A-427 yielded a relative viability of 0.975.
NCI-H661 showed a relative viability of 0.446.
NCI-H1734 gave a relative viability of 0.947.
For NCI-H460, the relative viability was 0.923.
NCI-H2347 showed a relative viability of 0.906.
SK-LU-1 gave a relative viability of 0.774.
In the case of NCI-H1395, the relative viability is reported as 1.19.
For 201T, the relative viability was 0.976.

Same assay, conditions: first compound 0.253 µM
With NCI-H2085 the relative viability was 0.747.
For Calu-6, the relative viability was 1.
For HCC-366, the relative viability was 0.998.
NCI-H1666 gave a relative viability of 0.519.
In the case of NCI-H596, the relative viability is reported as 1.01.
Work on LK-2 yielded a relative viability of 0.912.
For NCI-H2087, the relative viability was 0.943.
In the case of SK-MES-1, the relative viability is reported as 0.489.
H3255 showed a relative viability of 0.235.
Cell Line COR-L23 has a relative viability of 0.914.
COR-L 105 was tested, and the relative viability was 0.342.
For IA-LM, the relative viability was 0.78.
LOU-NH91 showed a relative viability of 0.759.
NCI-H2170 gave a relative viability of 0.244.
For NCI-H2405, the relative viability was 0.733.
For HOP-62, the relative viability was 1.09.
For HCC-44, the relative viability was 0.948.
A549 was tested, and the relative viability was 0.975.
LU99A was tested, and the relative viability was 0.93.
Cell Line BEN has a relative viability of 0.507.
HARA was tested, and the relative viability was 0.719.
In the case of HCC-78, the relative viability is reported as 0.733.
Work on NCI-H322M yielded a relative viability of 0.621.
Work on LCLC-97TM1 yielded a relative viability of 1.12.
NCI-H2009 was tested, and the relative viability was 0.878.
With A-427 the relative viability was 1.05.
With NCI-H661 the relative viability was 0.462.
NCI-H1734 was tested, and the relative viability was 0.886.
In the case of NCI-H460, the relative viability is reported as 0.768.
Work on SK-LU-1 yielded a relative viability of 0.717.
NCI-H1395 showed a relative viability of 0.935.
In the case of 201T, the relative viability is reported as 1.03.

Same assay, conditions: first compound 0.8 µM
Work on NCI-H2085 yielded a relative viability of 0.607.
With Calu-6 the relative viability was 1.12.
For HCC-366, the relative viability was 1.1.
NCI-H1666 showed a relative viability of 0.485.
LK-2 was tested, and the relative viability was 0.68.
With NCI-H2087 the relative viability was 1.37.
SK-MES-1 was tested, and the relative viability was 0.42.
H3255 gave a relative viability of 0.271.
Cell Line COR-L23 has a relative viability of 0.965.
COR-L 105 was tested, and the relative viability was 0.264.
IA-LM gave a relative viability of 0.66.
LOU-NH91 showed a relative viability of 0.618.
NCI-H2170 showed a relative viability of 0.242.
NCI-H2405 gave a relative viability of 0.87.
With HOP-62 the relative viability was 1.06.
HCC-44 gave a relative viability of 0.835.
